Laboratory results from ChEMBL document CHEMBL5537135, “Novel antimicrobial peptides modified with fluorinated sulfono-γ-AA having high stability and targeting multidrug-resistant bacteria infections” (Eur J Med Chem, 2024).
Values after ≈ are worked out from the molar mass of the structure shown. Active and inactive are the calls of the source. No cut-off for these calls is given here. Numbered stars: 1 amine (or outer) side, 2 acyl side, 3 side chain; on linkers, the order of the positions; unused ones are H or OH. Square brackets hold non-standard residues; d marks the D form. Peptide text beside a SMILES is read from it. * marks the point of attachment. X3 = CC(C)C[C@@H](CN(CC(N)=O)S(=O)(=O)c1ccc(C(F)(F)F)cc1)N*; X2 = CC(C)C[C@H](N)CN(CC(=O)[*:2])[*:1]; X1 = O=S(=O)(c1ccc(C(F)(F)F)cc1)*

Tests used:
[1] = tested on: Staphylococcus aureus; test: Bactericidal activity against Staphylococcus aureus ATCC 33591 at 2 to 4 times MIC; assay type: functional, organism-based
[2] = tested on: Staphylococcus aureus; test: Antimicrobial activity against methicillin-resistant Staphylococcus aureus 2 assessed as inhibition of visible bacterial growth incubated for 18 hrs by broth-dilution method; assay type: functional
[3] = tested on: Pseudomonas aeruginosa; test: Bactericidal activity against Pseudomonas aeruginosa ATCC 27853 at 2 to 4 times MIC; assay type: functional, organism-based
[4] = tested on: Staphylococcus aureus; test: Antibiofilm activity against methicillin-resistant Staphylococcus aureus ATCC 33591 assessed as inhibition of biofilm formation at 4 to 8 microg/ml incubated for 24 hrs by crystal violet staining based analysis; assay type: functional; conditions: dose 4-8 µg/ml, at 4 to 8 µg/mL
[5] = tested on: Pseudomonas aeruginosa; test: Antibiofilm activity against Pseudomonas aeruginosa ATCC 27853 assessed as biofilm thickness at 2 times MIC90 incubated for 24 hrs by confocal laser scanning microscopic analysis; assay type: functional
[6] = tested on: Staphylococcus aureus; test: Antibiofilm activity against methicillin-resistant Staphylococcus aureus ATCC 33591 assessed as biofilm thickness at 8 microg/ml incubated for 24 hrs by confocal laser scanning microscopic analysis; assay type: functional; conditions: dose 8 µg/ml
[7] = tested on: Staphylococcus aureus; test: Antimicrobial activity against methicillin-resistant Staphylococcus aureus 9 assessed as inhibition of visible bacterial growth incubated for 18 hrs by broth-dilution method; assay type: functional
[8] = tested on: Staphylococcus aureus; test: Antibiofilm activity against Staphylococcus aureus ATCC 25923 assessed as inhibition of biofilm formation at 4 to 8 microg/ml incubated for 24 hrs by crystal violet staining based analysis; assay type: functional; conditions: dose 4-8 µg/ml, at 4 to 8 µg/mL
[9] = tested on: Pseudomonas aeruginosa; test: Antimicrobial activity against multidrug-resistant Pseudomonas aeruginosa 119 assessed as inhibition of visible bacterial growth incubated for 18 hrs by broth-dilution method; assay type: functional
[10] = tested on: Staphylococcus aureus; test: Antimicrobial activity against methicillin-resistant Staphylococcus aureus ATCC 33591 assessed as reduction in bacterial growth in presence of human serum; assay type: functional
[11] = tested on: Staphylococcus aureus; test: Antimicrobial activity against methicillin-resistant Staphylococcus aureus 8 assessed as inhibition of visible bacterial growth incubated for 18 hrs by broth-dilution method; assay type: functional
[12] = tested on: Pseudomonas aeruginosa; test: Bactericidal activity against Pseudomonas aeruginosa ATCC 27853 assessed as reduction in viable bacteria at 4 times MIC measured for 5 min by time-kill assay; assay type: functional, organism-based
[13] = tested on: Pseudomonas aeruginosa; test: Antimicrobial activity against multidrug-resistant Pseudomonas aeruginosa 516 assessed as inhibition of visible bacterial growth incubated for 18 hrs by broth-dilution method; assay type: functional
[14] = tested on: Pseudomonas aeruginosa; test: Induction of intracellular ROS accumulation in Pseudomonas aeruginosa ATCC 27853 by DCFH-DA dye based fluorescence assay; assay type: functional, organism-based
[15] = tested on: Staphylococcus aureus; test: Antibiofilm activity against methicillin-resistant Staphylococcus aureus ATCC 33591 assessed as biofilm eradication at 4 times MIC incubated for 2 to 4 hrs by crystal violet staining based assay; assay type: functional, organism-based; conditions: time 2-4 hrs
[16] = tested on: Erythrocyte; test: Hemolytic activity against mouse Red blood cell incubated for 1 hr; assay type: toxicity, cell-based
[17] = tested on: Staphylococcus aureus; test: Antimicrobial activity against methicillin-resistant Staphylococcus aureus 7 assessed as inhibition of visible bacterial growth incubated for 18 hrs by broth-dilution method; assay type: functional
[18] = tested on: Staphylococcus aureus; test: Antibacterial activity against drug-susceptible Staphylococcus aureus ATCC 33591 assessed as reduction in microbial growth; assay type: functional
[19] = tested on: Staphylococcus aureus; test: Antimicrobial activity against methicillin-resistant Staphylococcus aureus 1 assessed as inhibition of visible bacterial growth incubated for 18 hrs by broth-dilution method; assay type: functional
[20] = tested on: Pseudomonas aeruginosa; test: Antibiofilm activity against Pseudomonas aeruginosa ATCC 27853 assessed as inhibition of biofilm formation at 4 to 8 microg/ml incubated for 24 hrs by crystal violet staining based analysis; assay type: functional; conditions: dose 4-8 µg/ml, at 4 to 8 µg/mL
[21] = tested on: Pseudomonas aeruginosa; test: Antimicrobial activity against Pseudomonas aeruginosa ATCC 27853 assessed as fold increase in MIC in presence of human serum; assay type: functional
[22] = tested on: Pseudomonas aeruginosa; test: Antimicrobial activity against Pseudomonas aeruginosa ATCC 27853 assessed as reduction in microbial growth in presence of human serum; assay type: functional
[23] = tested on: Staphylococcus aureus; test: Antibiofilm activity against methicillin-resistant Staphylococcus aureus ATCC 33591 assessed as biofilm thickness at 1 times MIC90 incubated for 24 hrs by confocal laser scanning microscopic analysis; assay type: functional
[24] = tested on: Pseudomonas aeruginosa; test: Antimicrobial activity against Pseudomonas aeruginosa ATCC 27853 assessed as inhibition of visible bacterial growth incubated for 18 hrs by broth-dilution method; assay type: functional
[25] = tested on: Staphylococcus aureus; test: Antimicrobial activity against methicillin-resistant Staphylococcus aureus 4 assessed as inhibition of visible bacterial growth incubated for 18 hrs by broth-dilution method; assay type: functional
[26] = tested on: Staphylococcus aureus; test: Antibiofilm activity against methicillin-resistant Staphylococcus aureus ATCC 33591 assessed as biofilm eradication at 4 times MIC incubated for 2 hrs by crystal violet staining based assay; assay type: functional, organism-based
[27] = tested on: Pseudomonas aeruginosa; test: Antibiofilm activity against Pseudomonas aeruginosa ATCC 27853 assessed as biofilm thickness at 1 times MIC90 incubated for 24 hrs by confocal laser scanning microscopic analysis; assay type: functional
[28] = tested on: Staphylococcus epidermidis; test: Antibiofilm activity against Staphylococcus epidermidis ATCC 12228 assessed as inhibition of biofilm formation at 4 to 8 microg/ml incubated for 24 hrs by crystal violet staining based analysis; assay type: functional; conditions: dose 4-8 µg/ml, at 4 to 8 µg/mL
[29] = tested on: Cell membrane; test: Disruption of membrane integrity in Pseudomonas aeruginosa ATCC 27853 incubated for 30 mins by PI staining based CLSM analysis
[30] = tested on: Staphylococcus aureus; test: Additive antibacterial activity against methicillin-resistant Staphylococcus aureus S5 assessed as fractional inhibitory concentration index in presence of amoxicillin by checkerboard assay; assay type: functional
[31] = tested on: Pseudomonas aeruginosa; test: Antimicrobial activity against Pseudomonas aeruginosa ATCC 27853 at 1 times MIC incubated for 18 hrs in presence of LPS/LTA; assay type: functional, organism-based
[32] = tested on: Staphylococcus epidermidis; test: Antimicrobial activity against Staphylococcus epidermidis ATCC 12228 assessed as inhibition of visible bacterial growth incubated for 18 hrs by broth-dilution method; assay type: functional
[33] = tested on: Pseudomonas aeruginosa; test: Antimicrobial activity against multidrug-resistant Pseudomonas aeruginosa 085 assessed as inhibition of visible bacterial growth incubated for 18 hrs by broth-dilution method; assay type: functional
[34] = tested on: Pseudomonas aeruginosa; test: Antimicrobial activity against multidrug-resistant Pseudomonas aeruginosa 156 assessed as inhibition of visible bacterial growth incubated for 18 hrs by broth-dilution method; assay type: functional
[35] = tested on: Escherichia coli; test: Antimicrobial activity against Escherichia coli ATCC 25922 assessed as inhibition of visible bacterial growth incubated for 18 hrs by broth-dilution method; assay type: functional
[36] = tested on: Salmonella typhimurium; test: Antimicrobial activity against Salmonella typhimurium ATCC 14028 assessed as inhibition of visible bacterial growth incubated for 18 hrs by broth-dilution method; assay type: functional, Salmonella enterica subsp. enterica serovar Typhimurium; conditions: Salmonella enterica
[37] = tested on: Pseudomonas aeruginosa; test: Antimicrobial activity against multidrug-resistant Pseudomonas aeruginosa 157 assessed as inhibition of visible bacterial growth incubated for 18 hrs by broth-dilution method; assay type: functional
[38] = tested on: Pseudomonas aeruginosa; test: Antimicrobial activity against multidrug-resistant Pseudomonas aeruginosa 125 assessed as inhibition of visible bacterial growth incubated for 18 hrs by broth-dilution method; assay type: functional
[39] = tested on: Staphylococcus aureus; test: Antimicrobial activity against methicillin-resistant Staphylococcus aureus 3 assessed as inhibition of visible bacterial growth incubated for 18 hrs by broth-dilution method; assay type: functional
[40] = tested on: Staphylococcus aureus; test: Antimicrobial activity against Staphylococcus aureus ATCC 25923 assessed as reduction in bacterial growth in presence of human serum; assay type: functional
[41] = tested on: Staphylococcus aureus; test: Antimicrobial activity against Staphylococcus aureus ATCC 33591 at 1 times MIC incubated for 18 hrs in presence of LPS/LTA; assay type: functional, organism-based
[42] = tested on: Pseudomonas aeruginosa; test: Antibiofilm activity against Pseudomonas aeruginosa ATCC 27853 assessed as biofilm thickness at 8 microg/ml incubated for 24 hrs by confocal laser scanning microscopic analysis; assay type: functional; conditions: dose 8 µg/ml
[43] = tested on: Cell membrane; test: Induction of outer membrane permeabilization in Pseudomonas aeruginosa ATCC 27853 assessed as increase in NPN uptake measured upto 20 mins by NPN-dye based fluorescence analysis

## CC(C)C[C@H](N)CN(CC(=O)N[C@@H](CCCCN)C(=O)N[C@@H](CC(C)C)C(=O)N[C@@H](CC(C)C)C(=O)N[C@@H](CCCCN)C(=O)N[C@@H](CCCCN)C(=O)N[C@@H](CC(C)C)C(=O)N[C@@H](CC(C)C)C(N)=O)S(=O)(=O)c1ccc(C(F)(F)F)cc1 (X1-[X2]KLLKKLL-NH2)
[1]
  Activity: Active
[2]
  MIC: 4 µg/mL (≈ 3.28 µM)
[3]
  Activity: Active
[4]
  inhibition (INH): 50%
[5]
  Activity: 20 um
[6]
  Activity: 20 um
[7]
  MIC: 8 µg/mL (≈ 6.56 µM)
[8]
  inhibition (INH): 50%
[9]
  MIC: 8 µg/mL (≈ 6.56 µM)
[10]
  MIC: 8 µg/mL
[11]
  MIC: 4 µg/mL (≈ 3.28 µM)
[12]
  Activity: Active
[13]
  MIC: 4 µg/mL (≈ 3.28 µM)
[14]
  Activity: Active
[15]
  Activity: Active
[16]
  MHC: 256 µg/mL
[17]
  MIC: 4 µg/mL (≈ 3.28 µM)
[18]
  MIC: 4 µg/mL
[19]
  MIC: 4 µg/mL (≈ 3.28 µM)
[20]
  inhibition (INH): 50%
[21]
  fold change (FC): 2
[22]
  MIC: 8 µg/mL
[23]
  Activity: 40 um
[24]
  MIC: 4 µg/mL (≈ 3.28 µM)
[25]
  MIC: 4 µg/mL (≈ 3.28 µM)
[26]
  Activity: Active
[27]
  Activity: 40 um
[28]
  inhibition (INH): 50%
[29]
  Activity: Active
[30]
  fractional inhibitory concentration index (FICI): 1
[31]
  Activity: inactive
[32]
  MIC: 4 µg/mL (≈ 3.28 µM)
[33]
  MIC: 8 µg/mL (≈ 6.56 µM)
[34]
  MIC: 4 µg/mL (≈ 3.28 µM)
[35]
  MIC: 16 µg/mL (≈ 13.1 µM)
[36]
  MIC: 8 µg/mL (≈ 6.56 µM)
[37]
  MIC: 4 µg/mL (≈ 3.28 µM)
[38]
  MIC: 8 µg/mL (≈ 6.56 µM)
[39]
  MIC: 4 µg/mL (≈ 3.28 µM)
[40]
  MIC: 8 µg/mL
[41]
  Activity: inactive
[42]
  Activity: 20 um
[43]
  Activity: Dose-Dependent Effect

## CC(C)C[C@@H](CN(CC(N)=O)S(=O)(=O)c1ccc(C(F)(F)F)cc1)NC(=O)[C@H](CCCCN)NC(=O)[C@H](CCCCN)NC(=O)[C@H](CC(C)C)NC(=O)[C@H](CC(C)C)NC(=O)[C@H](CCCCN)NC(=O)[C@H](CC(C)C)NC(=O)[C@@H](N)Cc1ccccc1 (H-FLKLLKK-X3)
[1]
  Activity: Active
[2]
  MIC: 4 µg/mL (≈ 3.19 µM)
[3]
  Activity: Active
[4]
  inhibition (INH): 50%
[5]
  Activity: 20 um
[6]
  Activity: 20 um
[7]
  MIC: 8 µg/mL (≈ 6.39 µM)
[8]
  inhibition (INH): 50%
[9]
  MIC: 8 µg/mL (≈ 6.39 µM)
[10]
  MIC: 8 µg/mL
[11]
  MIC: 4 µg/mL (≈ 3.19 µM)
[12]
  Activity: Active
[13]
  MIC: 16 µg/mL (≈ 12.8 µM)
[14]
  Activity: Active
[15]
  Activity: Active
[16]
  MHC: 256 µg/mL
[17]
  MIC: 8 µg/mL (≈ 6.39 µM)
[18]
  MIC: 4 µg/mL
[19]
  MIC: 8 µg/mL (≈ 6.39 µM)
[20]
  inhibition (INH): 50%
[21]
  fold change (FC): 2
[22]
  MIC: 8 µg/mL
[23]
  Activity: 40 um
[24]
  MIC: 8 µg/mL (≈ 6.39 µM)
[25]
  MIC: 8 µg/mL (≈ 6.39 µM)
[26]
  Activity: Active
[27]
  Activity: 40 um
[28]
  inhibition (INH): 50%
[29]
  Activity: Active
[30]
  fractional inhibitory concentration index (FICI): 0.5
[31]
  Activity: inactive
[32]
  MIC: 4 µg/mL (≈ 3.19 µM)
[33]
  MIC: 16 µg/mL (≈ 12.8 µM)
[34]
  MIC: 16 µg/mL (≈ 12.8 µM)
[35]
  MIC: 16 µg/mL (≈ 12.8 µM)
[36]
  MIC: 16 µg/mL (≈ 12.8 µM)
[37]
  MIC: 8 µg/mL (≈ 6.39 µM)
[38]
  MIC: 16 µg/mL (≈ 12.8 µM)
[39]
  MIC: 4 µg/mL (≈ 3.19 µM)
[40]
  MIC: 8 µg/mL
[41]
  Activity: inactive
[42]
  Activity: 20 um
[43]
  Activity: Dose-Dependent Effect
